The results in this text go back to patent US9351965B2, “Indazole derivatives useful as ERK inhibitors” (Merck Sharp & Dohme Corp., priority 2010, dated 2016).

The target in this experiment is fully phosphorylated, active Mouse ERK2 protein (Mus musculus (Mouse), UniProt P63085). In words: Active ERK2 (aERK) IMAP assay. The class given is biochemical. The conditions noted are these: IMAP fluorescence polarization; 30 μM ATP; 30 minute pre-incubation.
Sequence of fully phosphorylated, active Mouse ERK2 protein (P63085 whole entry): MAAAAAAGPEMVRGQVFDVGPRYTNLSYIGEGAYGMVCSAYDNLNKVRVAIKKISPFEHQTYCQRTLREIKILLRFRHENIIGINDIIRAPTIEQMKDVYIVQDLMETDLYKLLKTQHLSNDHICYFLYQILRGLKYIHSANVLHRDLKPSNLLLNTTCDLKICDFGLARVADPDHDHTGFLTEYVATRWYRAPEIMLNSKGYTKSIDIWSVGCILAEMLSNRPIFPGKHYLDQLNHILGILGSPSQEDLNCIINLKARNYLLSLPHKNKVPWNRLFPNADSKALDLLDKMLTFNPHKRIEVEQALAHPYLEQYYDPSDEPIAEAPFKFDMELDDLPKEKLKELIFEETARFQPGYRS
What is called IC50 is the concentration at which inhibition is half-maximal. Lower therefore signals greater potency in that assay. Compound `Cn1cc2cc(-c3n[nH]c4ccc(C(=O)NC5CCCC(Cn6cnc7ccccc76)C5)cc34)ccc2n1` (stereo not drawn) [compound 109, N-[3-(1H-benzimidazol-1-ylmethyl)cyclohexyl]-3-(2-methyl-2H-indazol-5-yl)-1H-indazole-5-carboxamide] returned a concentration for half-maximal inhibition (IC50) of 21.1 nM.
In turn, `O=C(NC1CCCC(Cn2cccn2)C1)c1ccc2[nH]nc(-c3ccc4nccn4c3)c2c1` (stereo not drawn) [compound 110, 3-imidazo[1,2-a]pyridin-6-yl-N-[3-(1H-pyrazol-1-ylmethyl)cyclohexyl]-1H-indazole-5-carboxamide] returned an IC50 of 74.6 nM.
As to `O=C(NC1CCCC(Cn2cncn2)C1)c1ccc2[nH]nc(-c3ccc4nccn4c3)c2c1` (stereo not drawn) [compound 111, 3-imidazo[1,2-a]pyridin-6-yl-N-[3-(1H-1,2,4-triazol-1-ylmethyl)cyclohexyl]-1H-indazole-5-carboxamide], the midpoint of inhibition, the IC50, lay at 77.2 nM.
In turn, `Cc1nc2ccc(-c3n[nH]c4ccc(C(=O)NC5CCCC(Cn6cc(C#N)c7ccccc76)C5)cc34)cc2s1` (stereo not drawn) [compound 112, N-[3-[(3-cyano-1H-indol-1-yl)methyl]cyclohexyl]-3-(2-methyl-6-benzothiazolyl)-1H-indazole-5-carboxamide] came in with an IC50 of 1000 nM.
Consider `Cc1cc(-c2n[nH]c3ccc(C(=O)NC4CCCC(Cn5cc6cccnc6n5)C4)cc23)ccn1` (stereo not drawn) [compound 113, 3-(2-methyl-4-pyridinyl)-N-[3-(2H-pyrazolo[3,4-b]pyridin-2-ylmethyl)cyclohexyl]-1H-indazole-5-carboxamide], for which inhibition was half-maximal at 164 nM (IC50).
The compound `Cc1cc(-c2n[nH]c3ccc(C(=O)NC4CCCC(Cn5ncc6cccnc65)C4)cc23)ccn1` (stereo not drawn) [compound 114, 3-(2-methyl-4-pyridinyl)-N-[3-(1H-pyrazolo[3,4-b]pyridin-1-ylmethyl)cyclohexyl]-1H-indazole-5-carboxamide] had an IC50 of 15.4 nM.
Turning to `Cc1cc(-c2n[nH]c3ccc(C(=O)NC4CCCC(Cn5ncc6ccncc65)C4)cc23)ccn1` (stereo not drawn) [compound 115, 3-(2-methyl-4-pyridinyl)-N-[3-(1H-pyrazolo[3,4-c]pyridin-1-ylmethyl)cyclohexyl]-1H-indazole-5-carboxamide], it took 33.8 nM to reach half-maximal inhibition (IC50).
The compound `Cc1cc(-c2n[nH]c3ccc(C(=O)NC4CCCC(Cn5c(C)nc6cnccc65)C4)cc23)ccn1` (stereo not drawn) [compound 116, N-[3-[(2-methyl-1H-imidazo[4,5-c]pyridiN-1-yl)methyl]cyclohexyl]-3-(2-methyl-4-pyridinyl)-1H-indazole-5-carboxamide] returned an IC50 of 1000 nM.
Compound `Cc1cc(-c2n[nH]c3ccc(C(=O)NC4CCCC(Cn5cnc6ncccc65)C4)cc23)ccn1` (stereo not drawn) [compound 117, N-[3-(1H-imidazo[4,5-b]pyridin-1-ylmethyl)cyclohexyl]-3-(2-methyl-4-pyridinyl)-1H-indazole-5-carboxamide] had an IC50 of 86.5 nM.
Consider `Cc1cc(-c2n[nH]c3ccc(C(=O)NC4CCCC(Cn5cnc6cccnc65)C4)cc23)ccn1` (stereo not drawn) [compound 118, N-[3-(3H-imidazo[4,5-b]pyridin-3-ylmethyl)cyclohexyl]-3-(2-methyl-4-pyridinyl)-1H-indazole-5-carboxamide], for which 60.8 nM corresponded to half-maximal inhibition (IC50).
With `Cc1cc(-c2n[nH]c3ccc(C(=O)NC4CCCC(Cn5ncc6cnccc65)C4)cc23)ccn1` (stereo not drawn) [compound 119, 3-(2-methyl-4-pyridinyl)-N-[3-(1H-pyrazolo[4,3-c]pyridin-1-ylmethyl)cyclohexyl]-1H-indazole-5-carboxamide], the IC50 came out at 530 nM.
For `Cc1cc(-c2n[nH]c3ccc(C(=O)NC4CCCC(CN5C(=O)Cc6ccccc65)C4)cc23)ccn1` (stereo not drawn) [compound 120, N-[3-[(2,3-dihydro-2-oxo-1H-indol-1-yl)methyl]cyclohexyl]-3-(2-methyl-4-pyridinyl)-1H-indazole-5-carboxamide] the value was 17.4 nM.
As to `Cc1cc(-c2n[nH]c3ccc(C(=O)NC4CCCC(Cn5c(=O)ccc6ccccc65)C4)cc23)ccn1` (stereo not drawn) [compound 121, 3-(2-methyl-4-pyridinyl)-N-[3-[(2-oxo-1(2h)-quinolinyl)methyl]cyclohexyl]-1H-indazole-5-carboxamide], the IC50 is 37.2 nM.
Compound `Cc1cc(-c2n[nH]c3ccc(C(=O)NC4CCCC(Cn5cc6ccccc6n5)C4)cc23)ccn1` (stereo not drawn) [compound 122, N-[3-(2H-indazol-2-ylmethyl)cyclohexyl]-3-(2-methyl-4-pyridinyl)-1H-indazole-5-carboxamide] gave an IC50 of 14.3 nM.
`Cc1cc(-c2n[nH]c3ccc(C(=O)NC4CCCC(Cn5ncc6ccccc65)C4)cc23)ccn1` (stereo not drawn) [compound 123, N-[3-(1H-indazol-1-ylmethyl)cyclohexyl]-3-(2-methyl-4-pyridinyl)-1H-indazole-5-carboxamide] came in with an IC50 of 10.7 nM. This IC50 and that of the compound before are within 1.5-fold of each other.
`Cc1nc2ccc(-c3n[nH]c4ccc(C(=O)NC5CCCC(Cn6c(C)nc7ccccc76)C5)cc34)cc2s1` (stereo not drawn) [compound 127, N-[3-[(2-methyl-1H-benzimidazol-1-yl)methyl]cyclohexyl]-3-(2-methyl-6-benzothiazolyl)-1H-indazole-5-carboxamide] had an IC50 of 1000 nM.
`Cc1cc(-c2n[nH]c3ccc(C(=O)NC4CCCC(CO)(Cc5c(F)cccc5F)C4)cc23)ccn1` (stereo not drawn) [compound 129, N-[3-[(2,6-difluorophenyl)methyl]-3-(hydroxymethyl)cyclohexyl]-3-(2-methyl-4-pyridinyl)-1H-indazole-5-carboxamide] registered an IC50 of 636 nM.
With `Cc1cc(-c2n[nH]c3ccc(C(=O)NC4CCCC(CO)(Cc5ccccc5)C4)cc23)ccn1` (stereo not drawn) [compound 132, N-[3-(hydroxymethyl)-3-(phenylmethyl)cyclohexyl]-3-(2-methyl-4-pyridinyl)-1H-indazole-5-carboxamide] the figure was 223 nM; with `Cc1cc(-c2n[nH]c3ccc(C(=O)NC4CCCC(CO)(Cc5ccccc5F)C4)cc23)ccn1` (stereo not drawn) [compound 133, N-[3-[(2-fluorophenyl)methyl]-3-(hydroxymethyl)cyclohexyl]-3-(2-methyl-4-pyridinyl)-1H-indazole-5-carboxamide], 109 nM.
`Cc1cc(-c2n[nH]c3ccc(C(=O)NC4CCCC(CO)(Cc5ccc(F)cc5F)C4)cc23)ccn1` (stereo not drawn) [compound 134, N-[3-[(2,4-difluorophenyl)methyl]-3-(hydroxymethyl)cyclohexyl]-3-(2-methyl-4-pyridinyl)-1H-indazole-5-carboxamide] came in with an IC50 of 436 nM.
For the compound `Cc1cc(-c2n[nH]c3ccc(C(=O)NC4CCCC(CO)(Cc5ccc(F)cc5)C4)cc23)ccn1` (stereo not drawn) [compound 135, N-[3-[(4-fluorophenyl)methyl]-3-(hydroxymethyl)cyclohexyl]-3-(2-methyl-4-pyridinyl)-1H-indazole-5-carboxamide], the IC50 came out at 357 nM.
The compound `Cc1cc(-c2n[nH]c3ccc(C(=O)NC4CCCC(Cc5ccc(F)cc5)(C(=O)O)C4)cc23)ccn1` (stereo not drawn) [compound 136, 1-[(4-fluorophenyl)methyl]-3-[[[3-(2-methyl-4-pyridinyl)-1H-indazol-5-yl]carbonyl]amino]cyclo-hexanecarboxylic acid] registered an IC50 of 302 nM.
Compound `Cc1cc(-c2n[nH]c3ccc(C(=O)NC4CCCC(CO)(Cc5c(F)cccc5F)C4)cc23)ccn1` (stereo not drawn) [compound 137, N-[3-[(2,6-difluorophenyl)methyl]-3-(hydroxymethyl)cyclohexyl]-3-(2-methyl-4-pyridinyl)-1H-indazole-5-carboxamide] yielded an IC50 of 445 nM. The IC50 values of the last two compounds are within 1.5-fold of each other.
In turn, `Cc1cc(-c2n[nH]c3ccc(C(=O)NC4CCC(CO)(Cc5ccccc5F)C4)cc23)ccn1` (stereo not drawn) [compound 138, N-[3-[(2-fluorophenyl)methyl]-3-(hydroxymethyl)cyclopentyl]-3-(2-methyl-4-pyridinyl)-1H-indazole-5-carboxamide] displayed a half-inhibitory concentration (IC50) of 19.2 nM.
In turn, `Cc1cc(-c2n[nH]c3ccc(C(=O)NC4CCC(CO)(Cc5ccccc5F)C4)cc23)ccn1` (stereo not drawn) [compound 139, N-[3-[(2-fluorophenyl)methyl]-3-(hydroxymethyl)cyclopentyl]-3-(2-methyl-4-pyridinyl)-1H-indazole-5-carboxamide] gave an IC50 of 64.4 nM. Compared with the last compound, the IC50 is about 3.4-fold higher.
In the case of `Cc1cc(-c2n[nH]c3ccc(C(=O)NN4CCCC(Oc5ccccc5Cl)C4)cc23)ccn1` (stereo not drawn) [compound 140, N-[3-(2-chlorophenoxy)-1-piperidinyl]-3-(2-methyl-4-pyridinyl)-1H-indazole-5-carboxamide], it took 31.3 nM to reach half-maximal inhibition (IC50). Against the preceding compound, the IC50 is about 2.1-fold lower.
With `Cc1cc(-c2n[nH]c3ccc(C(=O)NN4CCCC(Oc5ccccc5Cl)C4)cc23)ccn1` (stereo not drawn) [compound 141, N-[3-(2-chlorophenoxy)-1-piperidinyl]-3-(2-methyl-4-pyridinyl)-1H-indazole-5-carboxamide] the figure was 84.4 nM; with `Cc1cc(-c2n[nH]c3ccc(C(=O)NN4CCCC(Oc5ccccc5F)C4)cc23)ccn1` (stereo not drawn) [compound 142, N-[3-(2-fluorophenoxy)-1-piperidinyl]-3-(2-methyl-4-pyridinyl)-1H-indazole-5-carboxamide], 153 nM; with `Cc1cc(-c2n[nH]c3ccc(C(=O)NN4CCCC(Oc5ccccc5F)C4)cc23)ccn1` (stereo not drawn) [compound 143, N-[3-(2-fluorophenoxy)-1-piperidinyl]-3-(2-methyl-4-pyridinyl)-1H-indazole-5-carboxamide], 26.8 nM.
For `CC(C)Oc1ccc(-c2n[nH]c3ccc(C(=O)NN4CCCC4CCc4ccccc4)cc23)cn1` (stereo not drawn) [compound 144, 3-[6-(1-methylethoxy)-3-pyridinyl]-N-[2-(2-phenylethyl)-1-pyrrolidinyl]-1H-indazole-5-carboxamide] the value was 497 nM; for `Cc1cc(-c2n[nH]c3ccc(C(=O)NN4CCCC4CCc4ccccc4)cc23)ccn1` (stereo not drawn) [compound 145, 3-(2-methyl-4-pyridinyl)-N-[2-(2-phenylethyl)-1-pynolidinyl]-1H-indazole-5-carboxamide], 28.7 nM.
With `CC(C)Oc1cc(-c2n[nH]c3ccc(C(=O)NN4CCCC4CCc4ccccc4)cc23)ccn1` (stereo not drawn) [compound 146, 3-[2-(1-methylethoxy)-4-pyridinyl]-N-[2-(2-phenylethyl)-1-pyrrolidinyl]-1H-indazole-5-carboxamide] the figure was 1000 nM; with `Cc1cc(-c2n[nH]c3ccc(C(=O)NN4CCCC(CO)(Oc5cc(F)ccc5F)C4)cc23)ccn1` (stereo not drawn) [compound 147, N-[3-(2,5-difluorophenoxy)-3-(hydroxymethyl)-1-piperidinyl]-3-(2-methyl-4-pyridinyl)-1H-indazole-5-carboxamide], 388 nM.
